The values that follow come from patent publication US20220315567A1 (priority 2016, published 2022).

SMILES strings stand for the structures. “And” between values parts separate entries of the source, which are not always exact repeats. Equal entries are not always repeated. Structures can show the parent of a compound that is named as a salt. Where two headings read alike, the source gives them in different places.

Assay [1] addresses T1, human OPRM1 (μ, MOR) (Homo sapiens, UniProt P35372).
T1 construct: host or cells: CHO-K1
In words: cell-based. Particulars: for Emax: OPRM1, read-out: β-Arrestin Emax; for EC50: PathHunter human OPRM1 Arrestin CHO-K1 cell line, read-out: β-Arrestin EC50. As to the method:
The Discoverx PathHunter® β-Arrestin assay is used to measure β-arrestin-2 activity. The technology is based on Enzyme Fragment Complementation (EFC) with β-galactosidase (β-Gal) as the reporter. […] EA is fused to Q-arrestin-2, and ED is fused to the C-terminus of the GPCR of interest. When a ligand binds and the GPCR is activated, Q-arrestin-2 is recruited to the receptor resulting in an ED/EA complementation, restoring f-Gal activity, which is measured using chemiluminescence. For this assay, the PathHunter human OPRM1 (μ, MOR) Arrestin CHO-K1 cell line was used.

Assay [2] has as its target T1, human OPRM1 (μ, MOR). Type of assay: cell-based. Particulars: for ΔRA of compound: relative activity from EC50 and Emax of β-arrestin vs cAMP, lower RA = more G-protein biased. As to the method:
In certain embodiments, the ability of a compound to activate G-protein or β-arrestin is not an on/off switch for a given pathway, but rather a continuous function. To capture this, each compound is measured for activity in cell assays that are linked to β-arrestin recruitment and G-protein signaling. By comparing the activity between these two measures (accounting for both EC50 and maximal response reached, Emax) a relative activity (RA) value is determined.
In the case of MOR it is desirable to have high activation of the G-protein pathway while reducing activation of β-arrestin. In the case of the formula above, this means a lower RA.

Assay [3] addresses T1, human OPRM1 (μ, MOR). In words: cell-based. Particulars: for Emax: OPRM1, read-out: cAMP Emax; for EC50: PathHunter human OPRM1 Arrestin CHO-K1 cell line, read-out: cAMP EC50. The method, then: G-protein signaling was measured via second messenger cAMP modulation. Detection of cAMP modulation was accomplished in the PathHunter human OPRM1 (μ, MOR) Arrestin CHO-K1 cell line using the Dynamic2 cAMP Kit from Cisbio.

T1 sequence (P35372 whole entry): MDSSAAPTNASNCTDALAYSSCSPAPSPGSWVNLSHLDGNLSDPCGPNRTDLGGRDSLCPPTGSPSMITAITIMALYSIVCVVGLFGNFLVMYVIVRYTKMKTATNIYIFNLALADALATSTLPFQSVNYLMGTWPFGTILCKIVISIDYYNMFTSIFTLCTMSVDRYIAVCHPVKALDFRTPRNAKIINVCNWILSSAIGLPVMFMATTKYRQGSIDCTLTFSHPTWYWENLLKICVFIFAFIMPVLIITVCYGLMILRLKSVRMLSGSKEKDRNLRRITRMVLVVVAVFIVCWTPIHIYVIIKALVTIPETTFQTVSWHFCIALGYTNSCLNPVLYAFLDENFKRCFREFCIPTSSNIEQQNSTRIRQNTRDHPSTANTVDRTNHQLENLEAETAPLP

For the molecule `CNC(CNC(=O)N1Cc2ccc(F)cc2C1)c1ccsc1` (stereo not drawn) [Compound 35, 5-Fluoro-N-(2-(methylamino)-2-(thiophen-3-yl)ethyl)isoindoline-2-carboxamide], at human OPRM1 (μ, MOR) [1], the maximal effect (Emax) is less than 1% and the EC50 is more than 100 µM. Moreover, at human OPRM1 (μ, MOR) [2], the “Bias Factor (ΔRA of compound relative to ΔRA of DAMGO) × 10” value is reported as less than −14.83 and the ΔRA of compound is less than −2.96. In addition, at human OPRM1 (μ, MOR) [3], the Emax was 26.4% and the EC50 came to 1.17 µM.

Take `CN(C)C(CNC(=O)N1CC[C@H](c2ccccc2)C1)c1ccsc1` (stereo partly drawn) [Compound 40]: at human OPRM1 (μ, MOR) [1], the Emax came out at 3.3% and the EC50 was more than 100 µM. At human OPRM1 (μ, MOR) [2], the “Bias Factor (ΔRA of compound relative to ΔRA of DAMGO) × 10” value was less than −14.83 and the ΔRA of compound is recorded as less than −2.96. Also, at human OPRM1 (μ, MOR) [3], the Emax was determined as 53.5% and the EC50 amounted to 0.152 µM.

For the molecule `CN(C)C(CNC(=O)N1Cc2ccccc2C1)c1ccc(F)cc1Cl` (stereo not drawn) [Compound 14a, N-(2-(2-Chloro-4-fluorophenyl)-2-(dimethylamino)ethyl)isoindoline-2-carboxamide hydrochloride], on human OPRM1 (μ, MOR) [1], the Emax was 61.2% and the EC50 was determined as 3.96 µM. On human OPRM1 (μ, MOR) [2], the “Bias Factor (ΔRA of compound relative to ΔRA of DAMGO) × 10” value is given as −5.91 and the ΔRA of compound is −2.07. At human OPRM1 (μ, MOR) [3], the Emax came out at 102% and the EC50 was found to be 0.056 µM.

Take `CN(C)C(CNC(=O)N1Cc2ccc(F)cc2C1)c1ccsc1` (single isomer, unassigned; (-)) [2a-ent-(−), (−)-N-(2-(Dimethylamino)-2-(thiophen-3-yl)ethyl)-5-fluoroisoindoline-2-carboxamide hydrochloride]: the 50% effective concentration (EC50) is more than 100 µM on human OPRM1 (μ, MOR) [1]; 0.012 µM and 0.015 µM on human OPRM1 (μ, MOR) [3]. For the same molecule, the “β-Arrestin Emax” value at human OPRM1 (μ, MOR) [1] (hydrochloride) is less than 1%. Besides, the “Bias Factor (ΔRA of compound relative to ΔRA of DAMGO) × 10” value at human OPRM1 (μ, MOR) [2] (hydrochloride) is listed as less than −14.83. At human OPRM1 (μ, MOR) [2] (hydrochloride), the ΔRA of compound is listed as less than −2.96. Moreover, the “cAMP Emax” value at human OPRM1 (μ, MOR) [3] (hydrochloride) is 55.5, 30.4%.

For `CN(C)C(CNC(=O)N1Cc2ccc(O)cc2C1)c1ccsc1` (stereo not drawn) [Compound 22, N-(2-(Dimethylamino)-2-(thiophen-3-yl)ethyl)-5-hydroxyisoindoline-2-carboxamide hydrobromide], at human OPRM1 (μ, MOR) [1], the Emax is less than 1% and the EC50 is more than 100 µM. In addition, at human OPRM1 (μ, MOR) [2], the “Bias Factor (ΔRA of compound relative to ΔRA of DAMGO) × 10” value is listed as less than −14.83 and the ΔRA of compound is reported as less than −2.96. Moreover, on human OPRM1 (μ, MOR) [3], the Emax worked out at 16.3% and the EC50 stood at 0.322 µM.

For the molecule `CN(C)C(CNC(=O)NC1CCc2ccccc2C1)c1ccsc1` (stereo not drawn) [Compound 10a, 1-(2-(Dimethylamino)-2-(thiophen-3-yl)ethyl)-3-(1,2,3,4-tetrahydronaphthalen-2-yl)urea hydrochloride], at human OPRM1 (μ, MOR) [1], the Emax worked out at 3.33% and the EC50 was more than 100 µM. In addition, on human OPRM1 (μ, MOR) [2], the “Bias Factor (ΔRA of compound relative to ΔRA of DAMGO) × 10” value was less than −14.83 and the ΔRA of compound is recorded as less than −2.96. Further, on human OPRM1 (μ, MOR) [3], the Emax was found to be 85.5% and the EC50 amounted to 0.004 µM.

On to `CN(C)C(CNC(=O)NC1CCc2ccccc2C1)c1ccccc1` (stereo not drawn) [Compound 19a, 1-(2-(Dimethylamino)-2-phenylethyl)-3-(1,2,3,4-tetrahydronaphthalen-2-yl)urea hydrochloride], for which, on human OPRM1 (μ, MOR) [1], the Emax was 2.34% and the EC50 was more than 100 µM. At human OPRM1 (μ, MOR) [2], the “Bias Factor (ΔRA of compound relative to ΔRA of DAMGO) × 10” value is less than −14.83 and the ΔRA of compound is given as less than −2.96. Also, on human OPRM1 (μ, MOR) [3], the Emax worked out at 86.1% and the EC50 came to 0.032 µM.

As to `CN(C)C(CNC(=O)N1Cc2cccc(F)c2C1)c1ccsc1` (stereo not drawn) [Compound 3a, N-(2-(Dimethylamino)-2-(thiophen-3-yl)ethyl)-4-fluoroisoindoline-2-carboxamide hydrochloride], at human OPRM1 (μ, MOR) [1], the Emax was found to be 21.9% and the EC50 amounted to 0.31 µM. On human OPRM1 (μ, MOR) [2], the “Bias Factor (ΔRA of compound relative to ΔRA of DAMGO) × 10” value is given as −5.07 and the ΔRA of compound is −1.99. Further, at human OPRM1 (μ, MOR) [3], the Emax worked out at 94.2% and the EC50 stood at 0.014 µM.
